In patent US12447159B2 (AELIS FARMA, priority 2018, dated 2025):
Entries after “also recorded” stand apart in the source; their conditions may differ.

Assays:
[1] = system: 85 receptors (CEREP High-throughput profile+4 steroid receptors+Cannabinoid type 2 receptor); assay: CEREP High-throughput binding profile (85 receptors)
Description: The CEREP High-throughput profile consists of a broad collection of 80 transmembrane and soluble receptors, ion channels and G-Protein coupled receptors.

[2] = system: THC-induced increase in food intake; assay: THC-induced increase in food intake (fasting-refeeding model); type: in vivo; conditions: mice
Protocol: The effects of THC on food intake were studied using the fasting-refeeding model (Bellochio et al., 2010) in CB1^f/f male mice. […] Food intake was measured for one hour. Independent groups of animals (at least n=8 per group) were used for each treatment condition.

[3] = system: THC-induced conditioned gaping; assay: THC-induced conditioned gaping behavior; type: in vivo; conditions: rats
Protocol: Three days after cannulation surgery, rats were adapted to the taste reactivity chamber. Rats were individually placed in a Taste Reaction (TR) chamber with their cannulas attached to an infusion pump to infuse water into their intraoral cavity over a period of 2 min at the rate of 1 ml/min and then returned to their home cage. Rats received the first of three daily conditioning trials three days after the adaptation trial. […] Rats received the pre-treatment drug 3 hours prior to conditioning via feeding tube. They were then placed in the TR chamber and infused with 0.1% saccharin solution for 2 min at a rate of 1 ml/min while orofacial reactions were recorded. Immediately following saccharin infusion, the rats were injected […] with 10 mg/kg THC or VEH and returned to their home cage. Twenty-four hour later, the rats underwent a drug free test trial where they were placed in the TR chamber and infused with 0.1% saccharin solution for 2 min at a rate of 1 ml/min and orofacial reactions were recorded.

[4] = system: diet-induced obese (DIO) mouse model; assay: Repeated treatment: food intake and body weight in diet-induced obese (DIO) mice; type: in vivo
Protocol: Male C57BL/6J mice were fed ad libitum with a high-fat diet (HFD) for 8 weeks before the start of the pharmacological treatments. During pharmacological treatments, the HFD was maintained and food intake and body weight were measured daily. The food consumed was calculated by subtracting the food left in the hoppers from the initial pre-weighted amount. […] 3pMBP and rimonabant were administered by oral gavage once a day, two hours before the start of the dark phase of the light/dark cycle.

[5] = system: THC dependent mice; assay: Precipitated withdrawal in mice chronically treated with THC; type: in vivo; conditions: mice repeatedly treated with THC 20 mg/kg ip; Rimo 10 mg/kg ip; 3pMBP […] per os
Protocol: The chronic THC regimen (20 mg/kg, twice a day) used in these experiments has been chosen because it mimics heavy marijuana use (Cook et al., 1998) and is considered as a model of cannabinoids dependence in mice (Cutando et al., 2013; Hutcheson et al., 1998). […] From day 1 to 4-5, mice were injected ip with vehicle or THC (20 mg/kg in NaCl 0.9% containing 2% ethanol and 2% Tween80, 10 ml/kg) twice a day. […] All the other animals received the administration of the respective vehicle. […] The dose and schedule of administration of rimonabant chosen for this study has been commonly used to precipitate THC withdrawal in mice (Cook et al. 1998, Hutcheson et al., 1998, Huang et al., 2009).
For the measure of precipitated withdrawal, mice were placed in a novel home cage and a video camera positioned in front of each cage recorded animals' behaviors. Scoring was performed for 1 minute every 5 min-period. Two withdrawal signs were analyzed: paw tremors and head shaking, since they are the most common signs of THC withdrawal observed in mice (Cook et al. 1998, Hutcheson et al., 1998, Lichtman et al., 2001).

[6] = in vitro; type: in vitro ADME, monkeys; conditions: monkey
[7] = Metabolic stability in human liver microsomes (HLM); type: in vitro ADME; conditions: human LM, NADPH
Protocol: The investigation was performed on liver microsomes (LM) coming from mouse (MLM), rat (RLM), dog (DLM) and human (HLM).
3pMBP was incubated with liver microsome pools supplemented with NADPH as cofactor. Samples were taken at 5 different times (0, 10, 20, 30 and 60 minutes) and samples were monitored for parent compound disappearance in MRM mode using LC/MS-MS. The Intrinsic Clearance and half-life have been determined. Verapamil was used as reference compound.

[8] = system: CYP1A2; assay: CYP induction (mRNA level); type: in vitro ADME; conditions: 10 nM, 100 nM and 1 μM
[9] = target: OATP1B1 (Homo sapiens, UniProt Q9Y6L6); assay: Cellular transporter inhibition, CHO cells (fluorometry); conditions: 10 μM
Protocol: Chinese Hamster Ovary (CHO) were used for all transporters except for P-gp that was studied in Madin-Darby Canine Kidney (MDR1-MDCKII) cells. The inhibition of the activity of each transporter is evaluated by measuring changes in the transport of their specific substrates by fluorometry.

[10] = system: THC-induced object recognition impairment; assay: THC-induced impairment of long-term memory (object recognition test); conditions: per os 3 h before THC 6 mg/kg ip; mice
Description: Ten minutes before THC injection, mice were allowed to explore 2 identical objects in an “L”-shaped maze. The day after, one object was replaced by a novel one. […] The comparison of the time spent exploring the familiar and the novel objects is used as an index of discrimination between familiarity and novelty. Therefore, this parameter is used to evaluate object recognition performances.

[11] = per os 3 h before THC 1 mg/kg ip
[12] = 3 h prior to conditioning with THC 10 mg/kg

Chain of OATP1B1 (Q9Y6L6 whole entry): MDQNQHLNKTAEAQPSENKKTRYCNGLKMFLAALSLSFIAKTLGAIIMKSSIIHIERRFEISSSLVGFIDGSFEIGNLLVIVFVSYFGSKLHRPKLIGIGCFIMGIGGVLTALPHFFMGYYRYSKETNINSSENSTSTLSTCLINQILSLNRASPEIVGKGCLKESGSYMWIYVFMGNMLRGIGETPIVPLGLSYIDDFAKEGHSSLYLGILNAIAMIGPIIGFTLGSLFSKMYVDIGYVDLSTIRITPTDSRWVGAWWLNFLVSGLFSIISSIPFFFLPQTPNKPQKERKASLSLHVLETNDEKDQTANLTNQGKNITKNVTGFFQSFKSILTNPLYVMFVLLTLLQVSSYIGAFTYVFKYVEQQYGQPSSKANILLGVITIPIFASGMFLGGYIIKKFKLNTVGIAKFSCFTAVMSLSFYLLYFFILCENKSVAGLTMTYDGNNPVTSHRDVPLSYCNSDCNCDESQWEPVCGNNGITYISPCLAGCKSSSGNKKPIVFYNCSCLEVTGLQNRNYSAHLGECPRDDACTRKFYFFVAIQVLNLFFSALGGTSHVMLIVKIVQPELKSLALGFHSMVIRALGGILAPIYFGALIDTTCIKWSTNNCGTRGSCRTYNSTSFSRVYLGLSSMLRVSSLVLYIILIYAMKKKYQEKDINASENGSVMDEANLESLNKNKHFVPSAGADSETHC

For `COc1ccc(CO[C@H]2CC[C@@]3(C)C(=CC[C@H]4[C@@H]5CC[C@H](C(C)=O)[C@@]5(C)CC[C@@H]43)C2)cc1` [3pMBP, 3β-(4-methoxybenzyloxy)pregn-5-en-20-one], the “Modification of ligand binding” value ([1]; 10 μM) was “did not modify the binding of any of the 85 receptors; also recorded: did not modify the binding of these receptors or of any of the other receptors”, the IC50 ([1]; receptor binding, 85 receptors, read-out: ID50 (the source's name)) was over 10 µM and the “% inhibition” value [2, 11] was 100%. The ID50 [2, 11] was 0.015 mg/kg, the ID100 [2, 11] was 0.05 mg/kg and the ID50 ([2]; per os, THC 1 mg/kg) was “≈ 15 μg/kg”. For the same molecule, the ID100 ([2]; per os, THC 1 mg/kg) was “≈ 50 μg/kg”, the “Establishment of conditioned gaping (mean number of gaping reactions)” value ([3]; 0.005 and […], THC 10 mg/kg) was “interfered the establishment of conditioned gaping by reducing the mean number of gaping reactions” and the “% inhibition” value [3, 12] was 50%. For the same molecule, the ID50 [3, 12] was under 0.005 mg/kg, the “Inhibition of food-intake and body weight (repeated administration): Effect (3pMBP)” value ([4]; male mice, highest dose tested 15 mg/kg) was “at none of the dose tested did modify food intake or body weight and No” and the “Food intake in obese mice” value ([4]; vs vehicle, Rimo 10 mg/kg ip, 3pMBP 0.005-15 mg/kg per os) was “but not 3pMBP (0.005, 0.015, 0.05, 5 and 15 mg/kg; per os), decreases food intake”. For the same molecule, the “Duration of paw tremors” value [5] was “but not 3pMBP (0.15 mg/kg; per os) increases the duration of paw tremors”, the fraction unbound [6] was 0.01 to 0.03 and the half-life [7] was 6.83 h. The microsomal CLint ([7]; read-out: intrinsic clearance) was 3.38 µL/min/mg, the “Expression of CYP1A2” value [8] was “did not increase the expression” and the “Activity of OATP1B1” value [9] was “did not modify the activity”. The “% inhibition” value [10] was 100% and the ID50 [10] was under 0.005 mg/kg.
